Reference: patent US8183234B2, “Tricyclic guanidine derivatives as sodium-proton exchange inhibitors” (Piramal Life Sciences Limited, priority 2004, dated 2012)
Where a name gives a salt, the structure may show the parent alone.

SMILES	melting point
CS(=O)(=O)O.CS(=O)(=O)O.Cc1cc(C(=O)NC(=N)N)cc2c1Oc1c(Cl)cc(N(CCN3CCCC3)C(=O)OCC(C)C)cc1CS2(=O)=O [Example 74, (4-Chloro-8-guanidinocarbonyl-6-methyl-10,10-dioxo-10,11-dihydro-5-oxa-10lambda*6*-thia-dibenzo[a,d]cycloheptene-2-yl)-(2-pyrrolidin-1-yl-ethyl)-carbamic acid isobutylester dimesylate]	198 to 200 °C
CS(=O)(=O)O.Cc1cc(C(=O)NC(=N)N)cc2c1Oc1c(Cl)cc(S(=O)(=O)Nc3nnc(C4CC4)s3)cc1CS2(=O)=O [Example 51, 4-Chloro-8-guanidinocarbonyl-6-methyl-10,10-dioxo-10,11-dihydro-5-oxa-10lambda*6*-thia-dibenzo[a,d]cycloheptene-2-sulfonic acid (5-cyclopropyl-[1,3,4]thiadiazol-2-yl)-amide methane sulfonic acid salt]	221 to 222 °C
CS(=O)(=O)O.N=C(N)NC(=O)c1ccc2c(c1)S(=O)(=O)Cc1cc(Cl)ccc1O2 [Example 3, N-(2-Chloro-10,10-dioxo-10,11-dihydro-5-oxa-10lambda*6*-thia-dibenzo[a,d]cycloheptene-8-carbonyl)-guanidine, methanesulfonic acid salt]	280 to 282 °C
CCN1CCN(c2cc(Cl)c3c(c2)CS(=O)(=O)c2cc(C(=O)NC(=N)N)cc(C)c2O3)CC1.CS(=O)(=O)O.CS(=O)(=O)O [Example 116, N-[4-Chloro-2-(4-ethyl-piperazin-1-yl)-6-methyl-10,10-dioxo-10,11-dihydro-5-oxa-10lambda*6*-thia-dibenzo[a,d]cycloheptene-8-carbonyl]-guanidine dimesylate]	255 to 257 °C
COCC(=O)N(CCN1CCCC1)c1cc(Cl)c2c(c1)CS(=O)(=O)c1cc(C(=O)NC(=N)N)cc(C)c1O2.CS(=O)(=O)O.CS(=O)(=O)O [Example 77, N-(4-Chloro-8-guanidinocarbonyl-6-methyl-10,10-dioxo-10,11-dihydro-5-oxa-10lambda*6*-thia-dibenzo[a,d]cyclohepten-2-yl)-2-methoxy-N-(2-pyrrolidin-1-yl-ethyl)-acetamide dimesylate]	204 to 206 °C
CS(=O)(=O)O.CS(=O)(=O)O.CS(=O)(=O)O.Cc1cc(C(=O)NC(=N)N)cc2c1Oc1c(Cl)cc(NCCNCCc3ccccn3)cc1CS2(=O)=O [Example 83, N-{4-Chloro-6-methyl-10,10-dioxo-2-[2-(2-pyridin-2-yl-ethylamino)-ethylamino]-10,11-dihydro-5-oxa-10lambda*6*-thia-dibenzo[a,d]cycloheptene-8-carbonyl}-guanidine trimesylate]	196 to 198 °C
CS(=O)(=O)O.CS(=O)(=O)O.Cc1cc(C(=O)NC(=N)N)cc2c1Oc1c(Cl)cc(N3CCN(C(=O)c4ccc[nH]4)CC3)cc1CS2(=O)=O [Example 110, N-{4-Chloro-6-methyl-10,10-dioxo-2-[4-(1H-pyrrole-2-carbonyl)-piperazin-1-yl]-10,11-dihydro-5-oxa-10lambda*6*-thia-dibenzo[a,d]cycloheptene-8-carbonyl}-guanidine dimesylate]	306 to 307 °C
CS(=O)(=O)O.CS(=O)(=O)O.CS(=O)(=O)O.Cc1cc(C(=O)NC(=N)N)cc2c1Oc1c(Cl)cc(N3CCN(CCN4CCOCC4)CC3)cc1CS2(=O)=O [Example 121, N-{4-Chloro-6-methyl-2-[4-(2-morpholin-4-yl-ethyl)-piperazin-1-yl]-10,10-dioxo-10,11-dihydro-5-oxa-10lambda*6*-thia-dibenzo[a,d]cycloheptene-8-carbonyl}-guanidine trimesylate]	185 to 187 °C
Cc1cc(C(=O)N=C(N)N)cc2c1Oc1c(Cl)cc(N)cc1CS2(=O)=O (as salt: sulfonic acid salt) [Example 35, N-(2-Amino-4-chloro-6-methyl-10,10-dioxo-10,11-dihydro-5-oxa-10lambda*6*-thia-dibenzo[a,d]cycloheptene-8-carbonyl)-guanidine, methane sulfonic acid salt]	190 to 192 °C
CS(=O)(=O)O.CS(=O)(=O)O.Cc1cc(C(=O)NC(=N)N)cc2c1Oc1c(Cl)cc(NCCNCc3cccs3)cc1CS2(=O)=O [Example 86, N-(4-Chloro-6-methyl-10,10-dioxo-2-{2-[(thiophen-2-ylmethyl)-amino]-ethylamino}-10,11-dihydro-5-oxa-10lambda*6*thia-dibenzo[a,d]cycloheptene-8-carbonyl)-guanidine dimesylate]	243 to 245 °C
CCCCCN1CCN(c2cc(Cl)c3c(c2)CS(=O)(=O)c2cc(C(=O)NC(=N)N)cc(C)c2O3)CC1.CS(=O)(=O)O.CS(=O)(=O)O [Example 106, N-[4-Chloro-6-methyl-10,10-dioxo-2-(4-pentyl-piperazin-1-yl)-10,11-dihydro-5-oxa-10-lambda*6*-thia-dibenzo[a,d]cycloheptene-8-carbonyl]-guanidine dimesylate]	250 to 251 °C
Cc1cc(C(=O)N=C(N)N)cc2c1Oc1c(Cl)cc(NCCn3ccnc3)cc1CS2(=O)=O (as salt: mesylate) [Example 64, N-[4-Chloro-2-(2-imidazol-1-yl-ethylamino)-6-methyl-10,10-dioxo-10,11-dihydro-5-oxa-10lambda*6*-thia-dibenzo[a,d]cycloheptene-8-carbonyl]-guanidine dimesylate]	243 to 244 °C

Next, values leading:

melting point	SMILES
194 to 196 °C	CS(=O)(=O)O.CS(=O)(=O)O.Cc1cc(C(=O)NC(=N)N)cc2c1Oc1c(Cl)cc(NC(=O)CNC3CCCCC3)cc1CS2(=O)=O [Example 139, N-(4-Chloro-8-guanidinocarbonyl-6-methyl-10,10-dioxo-10,11-dihydro-5-oxa-10lambda*6*-thia-dibenzo[a,d]cyclohepten-2-yl)-2-cyclohexylamino-acetamide dimesylate]
245 to 248 °C	CS(=O)(=O)O.CS(=O)(=O)O.Cc1cc(C(=O)NC(=N)N)cc2c1Oc1c(Cl)cc(N3CCN(C4CC4)CC3)cc1CS2(=O)=O [Example 125, N-[4-Chloro-2-(4-cyclopropyl-piperazin-1-yl)-6-methyl-10,10-dioxo-10,11-dihydro-5-oxa-10lambda*6*-thia-dibenzo[a,d]cycloheptene-8-carbonyl]-guanidine dimesylate]
190 to 192 °C	CS(=O)(=O)O.CS(=O)(=O)O.Cc1cc(C(=O)NC(=N)N)cc2c1Oc1c(Cl)cc(NC(=O)CNC3CCCC3)cc1CS2(=O)=O [Example 140, N-(4-Chloro-8-guanidinocarbonyl-6-methyl-10,10-dioxo-10,11-dihydro-5-oxa-10lambda*6*-thia-dibenzo[a,d]cyclohepten-2-yl)-2-cyclopentylamino-acetamide dimesylate]
252 to 254 °C	CS(=O)(=O)O.CS(=O)(=O)O.Cc1cc(C(=O)NC(=N)N)cc2c1Oc1c(Cl)cc(NC(=O)Cn3ccnc3)cc1CS2(=O)=O [Example 137, N-(4-Chloro-8-guanidinocarbonyl-6-methyl-10,10-dioxo-10,11-dihydro-5-oxa-10lambda*6*-thia-dibenzo[a,d]cyclohepten-2-yl)-2-imidazol-1-yl-acetamide dimesylate]
222 °C	CS(=O)(=O)O.CS(=O)(=O)O.Cc1cc(C(=O)NC(=N)N)cc2c1Oc1c(Cl)cc(NC(=O)CN3CCN(c4cccc(C(F)(F)F)c4)CC3)cc1CS2(=O)=O [Example 145, N-(4-Chloro-8-guanidinocarbonyl-6-methyl-10,10-dioxo-10,11-dihydro-5-oxa-10lambda*6*-thia-dibenzo[a,d]cyclohepten-2-yl)-2-[4-(3-trifluoromethyl-phenyl)-piperazin-1-yl]-acetamide dimesylate]
190 to 191 °C	CS(=O)(=O)O.CS(=O)(=O)O.Cc1cc(C(=O)NC(=N)N)cc2c1Oc1c(Cl)cc(NC(=O)CN(C)C)cc1CS2(=O)=O [Example 142, N-(4-Chloro-8-guanidinocarbonyl-6-methyl-10,10-dioxo-10,11-dihydro-5-oxa-10lambda*6*-thia-dibenzo[a,d]cyclohepten-2-yl)-2-dimethylamino-acetamide dimesylate]
185 to 187 °C	CS(=O)(=O)O.CS(=O)(=O)O.Cc1cc(C(=O)NC(=N)N)cc2c1Oc1c(Cl)cc(N3CCN(CCO)CC3)cc1CS2(=O)=O [Example 197, N-{4-Chloro-2-[4-(2-hydroxy-ethyl)-piperazin-1-yl]-6-methyl-10,10-dioxo-10,11-dihydro-5-oxa-10lambda*6*-thia-dibenzo[a,d]cycloheptene-8-carbonyl}-guanidine dimesylate]
190 to 192 °C	CS(=O)(=O)O.CS(=O)(=O)O.Cc1cc(C(=O)NC(=N)N)cc2c1Oc1c(Cl)cc(NC(=O)CNC3CCC3)cc1CS2(=O)=O [Example 143, N-(4-Chloro-8-guanidinocarbonyl-6-methyl-10,10-dioxo-10,11-dihydro-5-oxa-10lambda*6*-thia-dibenzo[a,d]cycloheptene-2-yl)-2-cyclobutylamino-acetamide dimesylate]
282 to 287 °C	CS(=O)(=O)O.CS(=O)(=O)O.Cc1cc(C(=O)NC(=N)N)cc2c1Oc1c(Cl)cc(N3CCN(CC4CC4)CC3)cc1CS2(=O)=O [Example 123, N-[4-Chloro-2-(4-cyclopropylmethyl-piperazin-1-yl)-6-methyl-10,10-dioxo-10,11-dihydro-5-oxa-10lambda*6*-thia-dibenzo[a,d]cycloheptene-8-carbonyl]-guanidine dimesylate]
192 to 194 °C	CS(=O)(=O)O.CS(=O)(=O)O.Cc1cc(C(=O)NC(=N)N)cc2c1Oc1c(Cl)cc(NC(=O)CNC(C)C)cc1CS2(=O)=O [Example 141, N-(4-Chloro-8-guanidinocarbonyl-6-methyl-10,10-dioxo-10,11-dihydro-5-oxa-10lambda*6*-thia-dibenzo[a,d]cyclohepten-2-yl)-2-isopropylamino-acetamide dimesylate]
255 to 257 °C	CS(=O)(=O)O.CS(=O)(=O)O.Cc1cc(C(=O)NC(=N)N)cc2c1Oc1c(N)cccc1CS2(=O)=O [Example 159, N-[4-Amino-6-methyl-10,10-dioxo-10,11-dihydro-5-oxa-10lambda*6*-thia-dibenzo[a,d]cycloheptene-8-carbonyl)-guanidine dimesylate]
